In PubChem BioAssay (NCI):
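Cultured in 96-well plates, cells were exposed to test compound for 48 hours across five concentrations. Here, GI50 denotes the concentration required for 50% inhibition of growth. TGI: total growth inhibition.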

Legend:
Assay in all cases: NCI tumour cell line growth inhibition, 48 h
[1] = test system: SK-OV-3 ovarian
[2] = test system: M14 melanoma
[3] = test system: EKVX NSCLC
[4] = test system: U251 CNS
[5] = test system: LOX IMVI melanoma
[6] = test system: NCI-H460 lung
[7] = test system: HL-60(TB) leukemia
[8] = test system: KM12 colon
[9] = test system: TK-10 renal
[10] = test system: SR leukemia

CCCCn1c(-c2ccc(C(=O)O/N=C(\N)c3ccc4c(c3)OCO4)cc2)nc(-c2ccccc2)c1-c1ccccc1
GI50 [1]: 7.13 µM | TGI [1]: > 100 µM | GI50 [2]: 2.85 µM | TGI [2]: 17.5 µM | GI50 [3]: 2.07 µM | TGI [3]: 7.74 µM | GI50 [4]: 2 µM | TGI [4]: 5.24 µM | GI50 [5]: 0.185 µM | TGI [5]: 0.379 µM | GI50 [6]: 2.29 µM | TGI [6]: 5.62 µM | GI50 [7]: 0.603 µM | TGI [7]: 2.75 µM | GI50 [8]: 4.72 µM | TGI [8]: > 100 µM

COc1ccc(/C(=N\NC(=S)NN)C(c2ccc(OC)cc2)C2C(=O)Oc3ccccc32)cc1 (centres undefined)
GI50 [1]: > 100 µM | TGI [1]: > 100 µM | GI50 [2]: > 100 µM | TGI [2]: > 100 µM | GI50 [3]: > 100 µM | TGI [3]: > 100 µM | GI50 [9]: > 100 µM | TGI [9]: > 100 µM | GI50 [6]: > 100 µM | TGI [6]: > 100 µM | GI50 [7]: > 100 µM | TGI [7]: > 100 µM | GI50 [8]: > 100 µM | TGI [8]: > 100 µM | TGI [10]: > 100 µM

COc1ccc(C(=O)NCCN(C)C)c2nc3ccccc3nc12
TGI [1]: > 63.2 µM | TGI [2]: > 34.5 µM | TGI [3]: 33.2 µM | TGI [9]: 76.7 µM | TGI [4]: 40.9 µM | TGI [5]: 6.48 µM | TGI [8]: 32.4 µM | TGI [10]: 23.3 µM

NC(=S)NN/C=C(\C=Nc1ccccc1)[N+](=O)[O-]
TGI [1]: > 100 µM | TGI [2]: > 100 µM | TGI [3]: > 100 µM | TGI [9]: > 100 µM | TGI [5]: > 100 µM | TGI [7]: > 100 µM

O=C(O)c1ccc(C2C(=O)N[C@@H]3CCC[C@H]23)cc1 (some centres undefined)
TGI [1]: > 100 µM | TGI [2]: > 100 µM | TGI [3]: > 100 µM | TGI [9]: > 100 µM | TGI [4]: > 100 µM | TGI [5]: > 100 µM | TGI [6]: > 100 µM | TGI [7]: > 100 µM | TGI [8]: > 100 µM

CCOC(=O)NC(=O)c1cn(CCN2CCN(C(=O)CCCCCCCCCCC(=O)N3CCN(CCn4cc(C(=O)NC(=O)OCC)c(=O)[nH]c4=O)CC3)CC2)c(=O)[nH]c1=O
TGI [1]: > 100 µM | TGI [2]: > 100 µM | TGI [9]: > 100 µM | TGI [4]: > 100 µM | TGI [5]: > 100 µM | TGI [8]: > 100 µM | TGI [10]: > 100 µM

CC(=O)O[C@H]1CCc2c(cc(N)c3c2C(=O)C[C@]2(C)C([C@H](C)CCCC(C)C)CCC32C)C1(C)C (some centres undefined)
TGI [1]: > 100 µM | TGI [2]: > 100 µM | TGI [3]: > 100 µM | TGI [9]: > 100 µM | TGI [4]: > 100 µM | TGI [6]: > 100 µM | TGI [7]: > 100 µM | TGI [8]: > 100 µM | TGI [10]: > 100 µM

COC(=O)C(/C(=N\O)C(=O)Nc1cccc(Cl)c1C)c1cnc2ccccc2n1 (centres undefined)
TGI [1]: > 100 µM | TGI [2]: > 100 µM | TGI [3]: > 100 µM | TGI [9]: > 100 µM | TGI [4]: > 100 µM | TGI [5]: > 100 µM | TGI [6]: > 100 µM | TGI [8]: > 100 µM | TGI [10]: > 100 µM

COc1cc2c(cc1OC)C(C(=O)c1cccc(OC)c1OC)C(=O)N(C)CC2 (centres undefined)
TGI [1]: > 100 µM | TGI [2]: > 100 µM | TGI [9]: > 100 µM | TGI [4]: > 100 µM | TGI [5]: > 100 µM | TGI [6]: > 100 µM | TGI [7]: > 100 µM | TGI [8]: > 100 µM

Nc1ncnc2c1ncn2CC(O)CO (centres undefined)
TGI [1]: > 100 µM | TGI [2]: > 100 µM | TGI [3]: > 100 µM | TGI [9]: > 100 µM | TGI [5]: > 100 µM | TGI [6]: > 100 µM | TGI [7]: > 100 µM | TGI [8]: > 100 µM

Cn1c2ccccc2c(=O)c2c(O)cc3c(c21)C=CC1(CCCCC1)O3
TGI [1]: > 10 µM | TGI [2]: > 10 µM | TGI [3]: > 10 µM | TGI [9]: > 10 µM | TGI [4]: > 10 µM | TGI [5]: > 10 µM | TGI [6]: > 10 µM | TGI [8]: > 10 µM

CC(=O)OCC1OC(N2C(=O)C(=O)c3ccccc32)C(OC(C)=O)C(OC(C)=O)C1OC(C)=O (centres undefined)
TGI [1]: > 100 µM | TGI [2]: > 100 µM | TGI [3]: > 100 µM | TGI [9]: > 100 µM | TGI [4]: > 100 µM | TGI [5]: > 100 µM | TGI [6]: > 100 µM | TGI [8]: > 100 µM | TGI [10]: > 100 µM

CCOC(=O)c1cc2c3c(c(O)c(OC)c2s1)N(C(=O)c1cc2c4c(c(O)c(OC)c2s1)N(C(C)=O)CC4)CC3
TGI [1]: > 100 µM | TGI [2]: > 100 µM | TGI [3]: > 100 µM | TGI [9]: > 100 µM | TGI [4]: > 100 µM | TGI [5]: > 100 µM | TGI [6]: > 100 µM | TGI [7]: > 100 µM | TGI [8]: > 100 µM

COc1ccc(C(=O)c2ccc([As]=O)cc2)cc1 (centres undefined)
GI50 [1]: 0.181 µM | TGI [1]: 0.346 µM | GI50 [2]: 0.0629 µM | TGI [2]: 0.218 µM | GI50 [3]: 0.132 µM | TGI [3]: 0.293 µM | GI50 [9]: 0.057 µM | TGI [9]: 0.18 µM | GI50 [4]: 0.0218 µM | TGI [4]: 0.0615 µM | GI50 [5]: 0.0237 µM | TGI [5]: 0.075 µM | GI50 [6]: 0.172 µM | TGI [6]: 0.416 µM | GI50 [7]: 0.106 µM | TGI [7]: 0.346 µM | GI50 [8]: 0.0801 µM | TGI [8]: 0.219 µM

CCCCN(CCCC)C(=O)/C(CC(=O)c1cccc2ccccc12)=N\NC(=O)c1cc2ccccc2cc1O
TGI [2]: 69.8 µM | TGI [3]: 50.9 µM | TGI [9]: > 100 µM | TGI [4]: 72.3 µM | TGI [5]: 35.9 µM | TGI [6]: 44.2 µM | TGI [7]: 16.5 µM | TGI [8]: > 100 µM

CC(=O)/C(=C/c1ccccc1F)C(=O)c1ccccc1
TGI [1]: > 100 µM | TGI [2]: > 100 µM | TGI [3]: > 100 µM | TGI [9]: 80.9 µM | TGI [4]: > 100 µM | TGI [5]: 40.8 µM | TGI [6]: 97.8 µM | TGI [7]: > 100 µM | TGI [8]: > 100 µM

CCOC(=O)/C(C#N)=C\C=C(/Cl)c1ccc(Cl)cc1
GI50 [1]: > 46.8 µM | TGI [1]: > 85.4 µM | GI50 [2]: 14.8 µM | TGI [2]: 31.4 µM | GI50 [3]: 26.5 µM | TGI [3]: 63.9 µM | GI50 [9]: 16.2 µM | TGI [9]: 35.2 µM | GI50 [4]: 17.6 µM | TGI [4]: 32.1 µM | GI50 [5]: 4.82 µM | TGI [5]: 18.6 µM | GI50 [6]: 31 µM | TGI [6]: > 77.5 µM | GI50 [8]: 20 µM | TGI [8]: 45.8 µM | GI50 [10]: 4.78 µM | TGI [10]: > 100 µM

Cc1nc(C(N)=S)sc1C(=O)/C=C/c1c(O)ccc2ccccc12
TGI [1]: > 100 µM | TGI [2]: > 100 µM | TGI [3]: > 100 µM | TGI [9]: > 100 µM | TGI [4]: > 100 µM | TGI [5]: 73.6 µM | TGI [6]: > 100 µM | TGI [7]: 65.3 µM | TGI [8]: > 93.1 µM

CCNC(=O)COc1ccc(Cl)cc1Cl
TGI [1]: > 100 µM | TGI [2]: > 100 µM | TGI [3]: > 100 µM | TGI [4]: > 100 µM | TGI [6]: > 100 µM | TGI [7]: > 100 µM | TGI [8]: > 100 µM | TGI [10]: > 100 µM

Oc1ccccc1-c1nn(CNc2ccccc2Cl)c(=S)o1
GI50 [1]: > 100 µM | TGI [1]: > 100 µM | GI50 [2]: > 100 µM | TGI [2]: > 100 µM | GI50 [3]: > 100 µM | TGI [3]: > 100 µM | GI50 [9]: 42.2 µM | TGI [9]: > 100 µM | GI50 [4]: 31.4 µM | TGI [4]: > 100 µM | GI50 [5]: 18.9 µM | TGI [5]: 35.2 µM | GI50 [6]: 37.4 µM | TGI [6]: > 100 µM | GI50 [8]: > 100 µM | TGI [8]: > 100 µM | GI50 [10]: 25.2 µM | TGI [10]: 89.6 µM
